The text below walks through data of patent US5750754A, “Heterocyclic compounds” (Zeneca Limited, priority 1993, dated 1998).

Assay [1] has as its target T1, purified human platelet fibrinogen receptor (GPIIb/IIIa) (Homo sapiens, UniProt P05106+P08514).
T1 construct: is isolated from human platelet lysates; from tissue
Put plainly: Test (b): GPIIb/IIIa ELISA, inhibition of biotinylated fibrinogen binding. The note with it: purified human platelet GPIIb/IIIa, ELISA. In a few lines: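 GPIIb/IIIa affinity-purified from human platelet lysates was coated on plates, blocked, then incubated 2 h at 30 °C with biotinylated fibrinogen ([…]) plus compound. Bound fibrinogen detected via streptavidin/biotinylated HRP and TMB, OD at 650 nm; pIC50 for 50% binding inhibition.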
(In an ELISA, binding on a coated surface is turned into a signal by an enzyme label.)

For assay [2], the target named is T2, human, citrated, platelet-rich plasma (Homo sapiens, UniProt P05106+P08514).
T2 construct: aggregating human, citrated, platelet-rich plasma; endogenous in cells; host or cells: human platelets in citrated platelet-rich plasma
T2 sequence (P08514 32-887 limits assumed): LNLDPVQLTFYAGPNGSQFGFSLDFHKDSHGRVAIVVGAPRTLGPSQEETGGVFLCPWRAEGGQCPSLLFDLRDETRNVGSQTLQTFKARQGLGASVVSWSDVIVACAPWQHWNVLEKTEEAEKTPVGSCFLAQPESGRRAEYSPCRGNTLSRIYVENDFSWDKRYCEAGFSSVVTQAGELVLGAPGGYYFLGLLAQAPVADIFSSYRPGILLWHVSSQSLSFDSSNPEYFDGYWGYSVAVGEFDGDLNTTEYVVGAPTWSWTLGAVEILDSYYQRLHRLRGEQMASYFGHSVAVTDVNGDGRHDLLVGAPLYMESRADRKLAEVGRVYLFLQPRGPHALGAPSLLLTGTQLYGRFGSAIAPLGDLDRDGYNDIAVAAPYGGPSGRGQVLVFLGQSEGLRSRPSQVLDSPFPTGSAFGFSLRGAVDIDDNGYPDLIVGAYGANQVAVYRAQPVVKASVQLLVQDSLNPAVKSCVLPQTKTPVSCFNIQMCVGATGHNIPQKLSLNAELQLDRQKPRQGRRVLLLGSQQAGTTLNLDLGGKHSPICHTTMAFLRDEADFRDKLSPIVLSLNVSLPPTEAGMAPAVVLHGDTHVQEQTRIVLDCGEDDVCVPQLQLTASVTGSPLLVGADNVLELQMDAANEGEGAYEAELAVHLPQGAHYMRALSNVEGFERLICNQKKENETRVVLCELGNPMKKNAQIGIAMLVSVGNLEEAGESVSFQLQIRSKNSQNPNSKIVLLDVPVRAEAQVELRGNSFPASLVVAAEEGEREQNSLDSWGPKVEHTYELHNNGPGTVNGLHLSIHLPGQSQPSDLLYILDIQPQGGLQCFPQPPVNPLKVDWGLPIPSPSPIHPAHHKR
T2 sequence (P08514 891-1039 limits assumed): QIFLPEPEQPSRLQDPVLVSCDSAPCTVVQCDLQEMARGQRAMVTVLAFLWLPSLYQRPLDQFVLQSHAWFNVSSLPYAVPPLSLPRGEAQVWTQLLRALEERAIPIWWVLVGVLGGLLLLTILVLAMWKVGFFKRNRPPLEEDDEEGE
T2 sequence (P05106 27-788): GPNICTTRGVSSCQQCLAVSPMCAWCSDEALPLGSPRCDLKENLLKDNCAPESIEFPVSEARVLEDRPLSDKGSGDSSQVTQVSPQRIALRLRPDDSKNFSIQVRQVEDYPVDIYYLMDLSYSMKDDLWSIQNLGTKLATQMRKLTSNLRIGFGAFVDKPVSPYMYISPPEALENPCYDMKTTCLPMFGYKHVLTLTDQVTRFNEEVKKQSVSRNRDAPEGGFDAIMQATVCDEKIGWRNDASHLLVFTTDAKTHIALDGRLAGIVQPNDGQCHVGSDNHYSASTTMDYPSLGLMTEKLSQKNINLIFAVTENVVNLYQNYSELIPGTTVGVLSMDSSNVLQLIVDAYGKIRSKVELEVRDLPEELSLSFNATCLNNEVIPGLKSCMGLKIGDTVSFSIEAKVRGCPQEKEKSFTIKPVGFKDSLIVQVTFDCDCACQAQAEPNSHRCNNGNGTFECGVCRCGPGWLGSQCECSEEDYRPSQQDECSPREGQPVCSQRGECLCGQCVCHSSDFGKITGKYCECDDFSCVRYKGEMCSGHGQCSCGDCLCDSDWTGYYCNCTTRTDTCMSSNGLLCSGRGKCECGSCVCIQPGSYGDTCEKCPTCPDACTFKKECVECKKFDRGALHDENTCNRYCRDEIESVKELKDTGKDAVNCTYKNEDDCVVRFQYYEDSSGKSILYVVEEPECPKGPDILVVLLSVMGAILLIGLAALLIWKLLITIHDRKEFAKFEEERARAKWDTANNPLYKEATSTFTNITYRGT
Put plainly: Test (a): inhibition of ADP stimulated platelet aggregation (Born). It is filed as cell-based. The note with it: ADP induced aggregation of human platelet-rich plasma. Put shortly: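 ADP added to human citrated platelet-rich plasma to build aggregation dose-response curves, repeated with increasing test compound (generally 10-^5 M to 10-^10 M). pA2 derived from the 50% response value for ADP with vs. without compound, averaged over several concentrations.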

Setting [3] is: read-out: Test (b): pIC50 (-log(IC50)), 50% inhibition of biotinylated fibrinogen binding to GPIIb/IIIa (converted).
Where [4] appears, read: read-out: Test (a): pA2 value indicating potency of platelet aggregation inhibition (converted).
Setting [5] is: Test (b): pIC50 (-log(IC50)), 50% inhibition of biotinylated fibrinogen binding to GPIIb/IIIa.
[6] abbreviates: Test (a): pA2 value indicating potency of platelet aggregation inhibition.

SMILES strings stand for the structures. Where a name gives a salt, the structure may show the parent alone. Read-outs that look alike come from different tables or passages of the source.

T1 sequence (P08514 32-887 limits assumed): as the sequence (P08514 32-887 limits assumed) above
T1 sequence (P08514 891-1039 limits assumed): as the sequence (P08514 891-1039 limits assumed) above
T1 sequence (P05106 27-788): as the sequence (P05106 27-788) above

For the molecule `COC(=O)CCCc1ccc(CN2CCN(c3ccncc3)CC2)cc1` [Example 178, Methyl 4-[4-[4-(4-pyridyl)piperazin-1-yl]methylphenyl]butyrate], the IC50 in assay [1] (setting [3]) was 1000 nM. The Kb in assay [2] (setting [4]) is 3160 nM.
The matching figures for `COC(=O)CCc1ccc(C(=O)CN2CCN(c3ccncc3)CC2)cc1` [Example 11, Methyl 3-[4-[2-[4-(4-pyridyl)piperazin-1-yl]acetyl]phenyl]propionate]: 39800 nM and 2000 nM.
The matching figures for `O=C(O)C[C@H](NC(=O)CN1CCN(c2ccncc2)CC1)C(=O)N[C@@H](Cc1ccccc1)C(=O)O` [Example 39, N-[N-[2-[4-(4-Pyridyl)piperazin-1-yl]acetal]-L-aspartyl]-L-phenylalanine]: 251 nM and 25100 nM.
Taken in the same sequence, the figures for `O=C(O)COc1ccc(C(=O)CN2CCN(c3ccncn3)CC2)cc1` [Example 48, 4-[2-[4-(4-Pyrimidinyl)piperazin-1-yl]acetyl]phenoxyacetic acid] were 251 nM and 10000 nM.
Take `O=C(O)COc1ccc(NC(=O)N2CCN(c3ccncc3)CC2)cc1` [Example 64, 4-[[4-(4-Pyridyl)piperazin-1-yl]carboxamido]phenoxyacetic acid]: the IC50 in assay [1] (setting [3]) is 20 nM. The Kb in assay [2] (setting [4]) was 31.6 nM.
Regarding `Cc1cc(N2CCN(CC(=O)c3ccc(OCC(=O)O)cc3)CC2)ccn1` [Example 152, 4-[2-[4-(2-Methylpyrid-4-yl)piperazin-1-yl]acetyl]phenoxyacetic acid, dihydrobromide], the IC50 in assay [1] (setting [3]) is 100 nM. Moreover, the Kb in assay [2] (setting [4]) is 100 nM.
As for `CCCCS(=O)(=O)NC(CC(=O)O)c1ccc(OCC2CCN(c3ccncc3)CC2)cc1` (centres unmarked) [Example 98, 3-(n-Butylsulphonylamino)-3-[4-[1-(4-pyridyl)piperidin-4-yl]methoxyphenyl]propionic acid], the “Test (b): pIC50 (-log(IC50)), 50% inhibition of biotinylated fibrinogen binding to GPIIb/IIIa” value in assay [1] is listed as 8.5. For the same molecule, in assay [2], the “Test (a): pA2 value indicating potency of platelet aggregation inhibition” value is reported as 7.6.
Consider `COC(=O)COc1ccc(C(=O)C(C)CN2CCN(c3ccncc3)CC2)cc1` (racemic) [Example 177, RS Methyl 4-[3-[4-(4-pyridyl)piperazin-1-yl]-2-methylpropanoyl]-phenoxyacetate], for which the IC50 in assay [1] (setting [3]) was 79400 nM. For the same molecule, the Kb in assay [2] (setting [4]) was 1580 nM.
The matching figures for `COC(=O)Cc1ccc(C(=O)CN2CCN(c3ccncc3)CC2)cc1` [Example 13, Methyl 4-[2-[4-(4-pyridyl)piperazin-1-yl]acetyl]phenylacetate]: 15800 to 39800 nM and 5010 nM.
The matching figures for `O=C(O)CCNC(=O)CCCN1CCN(c2ccncc2)CC1` [Example 195, 3-[4-[4-(4-Pyridyl)piperazin-1-yl]butyryl]aminopropionic acid, trifluoroacetate]: 158 nM and 2510 nM.
In turn, `COC(=O)COc1ccc2c(c1)CCC(N1CCN(c3ccncc3)CC1)C2=O` (centres unmarked) [Example 80, Methyl 2-[4-(4-pyridyl)piperazin-1-yl]tetralone-6-oxyacetate] gave an IC50 in assay [1] (setting [5]) of 398 nM. In addition, the Kb in assay [2] (setting [6]) is 251 nM.
Regarding `C=CCc1cc(N2CCN(c3ccncc3)CC2)ccc1OCCCC(=O)O` [Example 206], the IC50 in assay [1] (setting [3]) is 10 nM. Besides, in assay [2] (setting [4]), the Kb was 251 nM.
The matching figures for `O=C(O)CC(NC(=O)c1ccc(N2CCN(c3ccncc3)CC2)cc1)c1ccccc1` (centres unmarked) [Example 59, 3-[4-[4-(4-Pyridy)piperazin-1-yl]benzamido]-3-phenylpropionic acid]: 31.6 nM and 63.1 nM.
In the case of `CC(C(=O)c1ccc(OCC(=O)O)c(OCC(=O)O)c1)N1CCN(c2ccncc2)CC1` (centres unmarked) [Example 79, 4-[2-[(4-Pyridyl)piperazin-1-yl]-2-methyl]acetyl-1,2-diphenoxydiacetic acid], the IC50 in assay [1] (setting [5]) is 3.16 nM. Also, the Kb in assay [2] (setting [6]) was 12.6 nM.
Consider `COC(=O)COc1ccc(C(=O)CN2CCN(c3ccncn3)CC2)cc1` [Example 47, Methyl 4-[2-[4-(4-pyrimidinyl)piperazin-1-yl]acetyl]phenoxyacetate], for which the IC50 in assay [1] (setting [3]) is 39800 nM. Further, the Kb in assay [2] (setting [4]) was 6310 nM.
Taken in the same sequence, the figures for `Cc1ccc(S(=O)(=O)NCCc2ccc(NC(=O)C3CCN(c4ccncc4)CC3)cc2)cc1` [Example 184, N-[2-[4-[1-(4-Pyridyl)piperidin-4-yl]carboxamidophenyl]ethyl]-4-methylphenylsulphonamide] were over 100000 nM and 5010 nM.
In the case of `O=C(O)COc1ccc(C(=O)CN2CCN(c3ccnc4c3CCCC4)CC2)cc1` [Example 46, 4-[2-[4-(5,6,7,8-Tetrahydro-4-quinolinyl)piperazin-1-yl]acetyl]phenoxyacetic acid], the IC50 in assay [1] (setting [3]) is 25.1 nM. For the same molecule, in assay [2] (setting [4]), the Kb is 1000 nM.
As to `O=C(O)CC(NC(=O)c1cccc(CN2CCN(c3ccncc3)CC2)c1)c1ccccc1` (centres unmarked) [Example 55, 3-[3-[4-(4-Pyridyl)piperazin-1-ylmethyl]]benzamido-3-phenylpropionic acid], the IC50 in assay [1] (setting [3]) is 15800 nM. Also, the Kb in assay [2] (setting [4]) is 31600 nM.
The matching figures for `COC(=O)COc1ccc(C(=O)CN2CCN(c3ccnc(C)c3)CC2)cc1` [Example 151, Methyl 4-[2-[4-(2-methylpyrid-4-yl)piperazin-1-yl]acetyl]phenoxyacetate]: 3980 nM and 631 nM.
Taken in the same sequence, the figures for `COC(=O)[C@H]1CC[C@H](Oc2ccc(N3CCN(c4ccncc4)CC3)cc2)CC1` [Example 230, Trans-methyl-4-[4-[4-(4-pyridyl)piperazin-1-yl]phenoxy]cyclohexyl carboxylate] were 5010 nM and 10000 nM.
As for `O=C(O)COc1ccc(OCC2CCN(c3ccncc3)CC2)cc1` [Example 158, 4-[1-(4-Pyridyl)piperidin-4-yl]methoxyphenoxyacetic acid.], the IC50 in assay [1] (setting [3]) is 100 nM. In addition, in assay [2] (setting [4]), the Kb is 631 nM.
Take `COC(=O)CCNC(=O)c1ccc(N2CCN(c3ccncc3)CC2)nc1` [Example 69, Methyl 3-[6-[4-(4-pyridyl)piperazin-1-yl]pyrid-3-ylcarboxamido]propionate]: in assay [1] (setting [3]), the IC50 was 3980 nM. Further, the Kb in assay [2] (setting [4]) is 12600 nM.
Taken in the same sequence, the figures for `COC(=O)COc1ccc(C(=O)CCN2CCN(c3ccncc3)CC2)cc1` [Example 7, Methyl 4-[3-[4-(4-pyridyl)piperazin-1-yl]propanoyl]phenoxyacetate] were 3980 to 6310 nM and 501 nM.
Taken in the same sequence, the figures for `COC(=O)COc1ccc(NC(=O)C2CCN(c3ccncc3)CC2)cc1` [Example 163, Methyl 4-[[1-(4-pyridyl)piperidin-4-yl]carboxamido]phenoxyacetate, hydrochloride] were 251 nM and 398 nM.
Taken in the same sequence, the figures for `NC(=O)COc1ccc(C(=O)CN2CCN(c3ccncc3)CC2)cc1` [Example 142, 4-[2-[4-(4-Pyridyl)piperazin-1-yl]acetyl]phenoxyacetamide] were 5010 nM and 5010 nM.
Regarding `Cc1ccc(S(=O)(=O)Nc2ccc(C(=O)CN3CCN(c4ccncc4)CC3)cc2)cc1` [Example 19, N-[4-[2-[4-(4-Pyridyl)piperazin-1-yl]acetyl]phenyl-4-methylphenyl]-sulphonamide], the IC50 in assay [1] (setting [3]) was 2000 nM. For the same molecule, the Kb in assay [2] (setting [4]) was 2510 nM.
The matching figures for `COC(=O)COc1cccc(C(=O)CN2CCN(c3ccncc3)CC2)c1` [Example 119]: over 100000 nM and 31600 nM.
The matching figures for `O=C(O)COC1CCCN(C(=O)CN2CCN(c3ccncc3)CC2)C1` (centres unmarked) [Example 104, 1[2-[4-(4-Pyridyl)piperazin-1yl]acetyl]piperidin-3-yloxyacetic acid]: 20000 nM and over 100000 nM.
For the molecule `O=C(COc1ccc(C(=O)CN2CCN(c3ccncc3)CC2)cc1)NCc1ccccc1` [Example 145, 2-[4-[2-[4-(4-Pyridyl)piperazin-1-yl]acetyl]phenoxy]-N-(phenylmethyl)-acetamide], the IC50 in assay [1] (setting [3]) was 5010 nM. The Kb in assay [2] (setting [4]) was 3160 nM.
The matching figures for `CCCCC(=O)N[C@@H](Cc1ccc(OCCC2CCN(c3ccncc3)CC2)cc1)C(=O)O` [Example 93, 2-S-(Pentanoylamino)-3-[4-[2-[1-(4-pyridyl)piperidin-4-yl]ethoxy]phenyl]propionic acid]: 3.16 nM and 12.6 nM.
The matching figures for `O=C(O)Cc1ccc(NC(=O)C2CCN(c3ccncc3)CC2)cc1` [Example 169]: 10000 nM and 39800 nM.
For the molecule `CC(C)(C)OC(=O)COc1ccc(CC(=O)N2CCN(c3ccncc3)CC2)cc1` [Example 149, Tertiary butyl 4-[2-[4-(4-pyridyl)piperazin-1-yl]carbonylmethyl]-phenoxyacetate], the IC50 in assay [1] (setting [3]) is 20000 nM. Also, the Kb in assay [2] (setting [4]) was 20000 nM.
`CCCCS(=O)(=O)N[C@@H](Cc1ccc(OCCC2CCN(c3ccncc3)CC2)cc1)C(=O)O` [Example 36, 2-S-(n-Butylsulphonylamino)-3-[4-[2-[1-(4-pyridyl)piperidin-4-yl]ethoxy]phenyl]propionic acid]: in assay [1] (setting [3]), the IC50 was 1 nM. In addition, the Kb in assay [2] (setting [4]) is 2 nM.
As for `CCCCS(=O)(=O)N[C@H](Cc1ccc(OCC2CCN(c3ccncc3)CC2)cc1)C(=O)O` [Example 101], in assay [1] (setting [3]), the IC50 was 31.6 nM. The Kb in assay [2] (setting [4]) was 501 nM.
